The values below come from article PMC10924921, “Mi-2β promotes immune evasion in melanoma by activating EZH2 methylation” (Nature Communications, 2024).

Assay in all cases: biochemical
Common to all, as to design: KINOMEscan active-site competition binding panel (468 kinase assays), per cent of control at 1000 nM
Holding throughout (conditions): KINOMEscan per cent of control (binding competition); read-out: Percent Control

The target in one assay is AAK1 (Homo sapiens, UniProt Q2M2I8). From the text: (§1) Figure S7 / Percent Control
The target in the next assay is T1, CDK4-cyclinD3 (Homo sapiens, UniProt P11802).
T1 construct: cyclinD3
Description: as §1

Another assay has as its target CHEK2 (Homo sapiens, UniProt O96017).
Description: as §1

The target of another assay is T2, DCAMKL3 (Homo sapiens, UniProt Q9C098).
T2 construct: gene DCLK3
Description: as §1

A further assay addresses T3, DRAK1 (Homo sapiens, UniProt Q9UEE5).
T3 construct: gene STK17A
Description: as §1

For the next assay, the target named is EPHA2 (Homo sapiens, UniProt P29317).
Description: as §1

In another assay the target is EPHB2 (Homo sapiens, UniProt P29323).
Description: as §1

Another assay deals with ERN1 (Homo sapiens, UniProt O75460).
Description: as §1

The next assay addresses HCK (Homo sapiens, UniProt P08631).
Description: as §1

The target in another assay is INSR (Homo sapiens, UniProt P06213).
Description: as §1

Another assay concerns the target IRAK4 (Homo sapiens, UniProt Q9NWZ3).
Description: as §1

The target in assay [1] is T4, JAK1(JH1domain-catalytic) (Homo sapiens, UniProt P23458).
T4 construct: JH1domain-catalytic
Description: as §1

The target in the next assay is T5, MEK3 (Homo sapiens, UniProt P46734).
T5 construct: gene MAP2K3
Description: as §1

The target in another assay is T6, MST1 (Homo sapiens, UniProt Q13043).
T6 construct: gene STK4
Description: as §1

In another assay the target is MST1R (Homo sapiens, UniProt Q04912).
Description: as §1

For the next assay, the target named is PIK3CA(E545A) (Homo sapiens, UniProt P42336, E545A).
Description: as §1

The next assay deals with RET(V804L) (Homo sapiens, UniProt P07949, V804L).
Description: as §1

The target in assay [2] is T7, RSK1(Kin.Dom.2-C-terminal) (Homo sapiens, UniProt Q15418).
T7 construct: gene RPS6KA1; Kin.Dom.2-C-terminal
Description: as §1

The next assay concerns the target T8, TRKC (Homo sapiens, UniProt Q16288).
T8 construct: gene NTRK3
Description: as §1

Chain of AAK1 (Q2M2I8 whole entry): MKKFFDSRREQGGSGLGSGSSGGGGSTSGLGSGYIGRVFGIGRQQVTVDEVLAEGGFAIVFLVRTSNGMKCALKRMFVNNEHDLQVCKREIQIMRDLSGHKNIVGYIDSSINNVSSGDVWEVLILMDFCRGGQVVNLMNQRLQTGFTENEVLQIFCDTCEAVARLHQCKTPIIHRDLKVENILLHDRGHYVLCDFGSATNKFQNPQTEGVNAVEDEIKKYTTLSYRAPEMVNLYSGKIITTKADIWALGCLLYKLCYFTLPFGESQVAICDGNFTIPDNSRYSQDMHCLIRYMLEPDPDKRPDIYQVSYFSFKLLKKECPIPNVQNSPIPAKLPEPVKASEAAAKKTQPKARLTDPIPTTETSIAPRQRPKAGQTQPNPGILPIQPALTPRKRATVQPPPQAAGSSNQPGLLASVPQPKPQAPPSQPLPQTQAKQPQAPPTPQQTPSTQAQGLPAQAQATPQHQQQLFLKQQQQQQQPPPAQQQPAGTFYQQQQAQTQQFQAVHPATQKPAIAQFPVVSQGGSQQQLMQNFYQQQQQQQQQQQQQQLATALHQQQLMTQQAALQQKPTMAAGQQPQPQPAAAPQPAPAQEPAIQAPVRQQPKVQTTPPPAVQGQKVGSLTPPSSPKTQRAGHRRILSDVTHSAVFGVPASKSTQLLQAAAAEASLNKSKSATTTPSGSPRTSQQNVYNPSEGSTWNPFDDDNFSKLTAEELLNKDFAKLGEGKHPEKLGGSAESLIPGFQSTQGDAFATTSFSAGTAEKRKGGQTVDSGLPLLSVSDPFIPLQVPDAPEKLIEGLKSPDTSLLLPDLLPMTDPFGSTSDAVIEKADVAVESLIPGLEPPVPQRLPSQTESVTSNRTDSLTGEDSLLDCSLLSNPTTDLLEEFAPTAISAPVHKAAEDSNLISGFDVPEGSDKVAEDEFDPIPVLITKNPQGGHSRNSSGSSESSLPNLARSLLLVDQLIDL
Chain of IRAK4 (Q9NWZ3 whole entry): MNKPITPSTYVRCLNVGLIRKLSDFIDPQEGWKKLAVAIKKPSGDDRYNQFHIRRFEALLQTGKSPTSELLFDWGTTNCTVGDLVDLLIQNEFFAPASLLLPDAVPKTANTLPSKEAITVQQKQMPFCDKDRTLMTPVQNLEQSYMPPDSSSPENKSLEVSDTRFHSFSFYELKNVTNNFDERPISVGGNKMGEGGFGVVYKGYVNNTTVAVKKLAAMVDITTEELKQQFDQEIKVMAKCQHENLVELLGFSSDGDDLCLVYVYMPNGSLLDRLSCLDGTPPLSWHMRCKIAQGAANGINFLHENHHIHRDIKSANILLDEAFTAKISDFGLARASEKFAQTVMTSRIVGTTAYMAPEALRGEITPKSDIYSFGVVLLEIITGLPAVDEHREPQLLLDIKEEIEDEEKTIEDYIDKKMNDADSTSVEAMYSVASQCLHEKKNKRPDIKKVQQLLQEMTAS
Chain of RET(V804L) (P07949 whole entry V804L): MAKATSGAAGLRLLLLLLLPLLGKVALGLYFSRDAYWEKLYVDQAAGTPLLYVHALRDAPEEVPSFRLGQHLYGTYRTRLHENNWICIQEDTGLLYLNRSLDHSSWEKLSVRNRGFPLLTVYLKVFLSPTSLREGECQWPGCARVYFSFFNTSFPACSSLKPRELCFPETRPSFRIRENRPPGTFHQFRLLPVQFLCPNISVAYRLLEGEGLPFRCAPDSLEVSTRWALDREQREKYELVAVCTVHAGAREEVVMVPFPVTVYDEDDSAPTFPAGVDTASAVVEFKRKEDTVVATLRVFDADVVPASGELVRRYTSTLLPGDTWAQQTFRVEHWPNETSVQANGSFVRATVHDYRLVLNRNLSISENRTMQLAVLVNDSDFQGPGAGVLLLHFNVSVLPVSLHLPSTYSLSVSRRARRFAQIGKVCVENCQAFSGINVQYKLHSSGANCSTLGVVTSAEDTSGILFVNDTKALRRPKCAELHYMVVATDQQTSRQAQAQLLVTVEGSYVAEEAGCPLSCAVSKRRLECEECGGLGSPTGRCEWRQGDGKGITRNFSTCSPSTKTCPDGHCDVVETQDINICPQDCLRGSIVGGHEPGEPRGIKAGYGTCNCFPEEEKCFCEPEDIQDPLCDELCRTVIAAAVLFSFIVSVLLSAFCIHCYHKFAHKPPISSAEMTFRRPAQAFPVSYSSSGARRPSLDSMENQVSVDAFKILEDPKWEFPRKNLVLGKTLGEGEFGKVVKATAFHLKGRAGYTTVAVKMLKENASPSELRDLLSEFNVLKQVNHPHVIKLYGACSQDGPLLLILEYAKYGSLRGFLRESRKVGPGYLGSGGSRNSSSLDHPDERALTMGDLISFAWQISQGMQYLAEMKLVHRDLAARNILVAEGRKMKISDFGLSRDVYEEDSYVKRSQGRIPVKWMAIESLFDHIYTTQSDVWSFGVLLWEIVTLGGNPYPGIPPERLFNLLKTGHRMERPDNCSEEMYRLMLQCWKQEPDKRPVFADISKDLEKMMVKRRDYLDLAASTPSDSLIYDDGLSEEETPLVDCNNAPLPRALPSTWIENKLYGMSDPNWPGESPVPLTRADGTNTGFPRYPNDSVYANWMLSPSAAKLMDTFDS
T7 sequence (Q15418 whole entry): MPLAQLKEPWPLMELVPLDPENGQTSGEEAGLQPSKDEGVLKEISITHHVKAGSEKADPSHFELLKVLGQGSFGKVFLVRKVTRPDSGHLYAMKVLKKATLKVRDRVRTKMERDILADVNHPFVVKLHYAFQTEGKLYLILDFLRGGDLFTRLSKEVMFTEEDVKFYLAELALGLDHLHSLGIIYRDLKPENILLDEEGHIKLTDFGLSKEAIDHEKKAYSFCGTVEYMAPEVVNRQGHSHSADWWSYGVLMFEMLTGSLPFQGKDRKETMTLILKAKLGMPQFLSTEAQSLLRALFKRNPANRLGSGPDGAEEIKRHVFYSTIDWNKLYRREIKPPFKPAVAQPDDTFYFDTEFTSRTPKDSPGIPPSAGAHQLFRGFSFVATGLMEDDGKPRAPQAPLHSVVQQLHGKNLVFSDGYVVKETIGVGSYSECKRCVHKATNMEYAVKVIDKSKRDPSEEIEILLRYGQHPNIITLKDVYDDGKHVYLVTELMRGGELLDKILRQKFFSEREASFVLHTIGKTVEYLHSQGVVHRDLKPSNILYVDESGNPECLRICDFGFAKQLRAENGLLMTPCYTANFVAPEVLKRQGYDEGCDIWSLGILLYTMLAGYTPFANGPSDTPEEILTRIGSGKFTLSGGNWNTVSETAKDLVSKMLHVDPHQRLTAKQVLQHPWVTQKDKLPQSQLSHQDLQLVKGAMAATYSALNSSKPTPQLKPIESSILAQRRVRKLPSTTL
Chain of HCK (P08631 whole entry): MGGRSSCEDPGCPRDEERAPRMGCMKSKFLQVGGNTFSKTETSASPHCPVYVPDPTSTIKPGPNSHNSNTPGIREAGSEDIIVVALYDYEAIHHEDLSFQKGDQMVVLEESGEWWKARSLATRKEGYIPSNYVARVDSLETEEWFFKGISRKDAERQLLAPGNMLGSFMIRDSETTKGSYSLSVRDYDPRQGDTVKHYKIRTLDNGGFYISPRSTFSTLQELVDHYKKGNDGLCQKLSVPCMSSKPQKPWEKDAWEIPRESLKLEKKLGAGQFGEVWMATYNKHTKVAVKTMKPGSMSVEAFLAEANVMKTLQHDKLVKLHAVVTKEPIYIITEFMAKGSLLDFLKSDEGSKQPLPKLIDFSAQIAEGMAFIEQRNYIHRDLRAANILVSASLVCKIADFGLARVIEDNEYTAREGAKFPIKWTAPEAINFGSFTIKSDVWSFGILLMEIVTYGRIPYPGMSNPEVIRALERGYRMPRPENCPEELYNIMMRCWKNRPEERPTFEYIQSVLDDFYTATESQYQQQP
T1 sequence (P11802 whole entry): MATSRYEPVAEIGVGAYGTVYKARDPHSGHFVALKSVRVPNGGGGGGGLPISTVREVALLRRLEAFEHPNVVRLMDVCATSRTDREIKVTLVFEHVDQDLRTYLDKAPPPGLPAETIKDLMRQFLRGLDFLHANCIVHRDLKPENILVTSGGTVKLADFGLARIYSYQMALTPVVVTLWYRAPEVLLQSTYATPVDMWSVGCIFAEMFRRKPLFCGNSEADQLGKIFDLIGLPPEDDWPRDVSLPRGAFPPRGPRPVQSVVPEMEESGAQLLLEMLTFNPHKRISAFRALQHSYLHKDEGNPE
T1 sequence (P30281 whole entry partner): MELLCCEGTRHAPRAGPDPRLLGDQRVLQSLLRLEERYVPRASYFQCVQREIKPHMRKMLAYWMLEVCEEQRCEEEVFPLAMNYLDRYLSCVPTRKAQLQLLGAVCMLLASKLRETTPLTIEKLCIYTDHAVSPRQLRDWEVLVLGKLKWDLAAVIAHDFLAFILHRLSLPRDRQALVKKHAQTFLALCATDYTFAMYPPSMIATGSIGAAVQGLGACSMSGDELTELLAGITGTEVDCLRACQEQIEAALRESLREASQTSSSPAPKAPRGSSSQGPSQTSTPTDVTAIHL
T3 sequence (Q9UEE5 whole entry): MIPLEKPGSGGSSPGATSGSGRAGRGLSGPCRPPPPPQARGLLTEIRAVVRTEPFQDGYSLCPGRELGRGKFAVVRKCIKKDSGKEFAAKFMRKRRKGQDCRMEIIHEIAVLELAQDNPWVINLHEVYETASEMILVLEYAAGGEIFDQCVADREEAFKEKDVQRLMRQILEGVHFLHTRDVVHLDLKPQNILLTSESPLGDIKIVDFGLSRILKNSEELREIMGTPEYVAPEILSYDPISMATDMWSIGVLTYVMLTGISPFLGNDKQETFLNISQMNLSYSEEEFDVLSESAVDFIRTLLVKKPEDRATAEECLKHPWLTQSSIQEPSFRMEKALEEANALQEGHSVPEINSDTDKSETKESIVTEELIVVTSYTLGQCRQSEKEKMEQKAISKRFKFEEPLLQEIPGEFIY

For the compound `Cn1c(=O)[nH]c2ccc(-c3cccc(C(=O)NC4CCn5ccnc5C4)c3)cc21` (stereo not shown) [Z36-MP5], the remaining binding at 1 µM on AAK1 came to 91%; on CDK4-cyclinD3, 54%; at CHEK2 it was 58%; on DCAMKL3, 92%; on DRAK1, 96%; at EPHA2 it was 88%. The remaining binding at 1 µM on EPHB2 is 70%; at ERN1 it was 49%; at HCK it was 95%; on INSR it was 57%; on IRAK4, 78%; in [1] it was 96%. Also, the remaining binding at 1 µM on MEK3 is 66%; on MST1, 84%; on MST1R it was 64%; on PIK3CA(E545A) it was 89%; on RET(V804L), 75%; in assay [2] it was 98%. For the same compound, the remaining binding at 1 µM on TRKC is 53%.
